Experiments:
PRMT1 = target: T1, PRMT1 (Homo sapiens, UniProt Q99873); assay: PRMT1 biochemical assay (3H-SAM Flashplate, histone H4 peptide substrate); conditions: GST-tagged full-length human PRMT1 0.5 nM, 30 min preincubation, peptide 20 nM
T1 construct: GST-tagged PRMT1; made in house; host or cells: High Five insect cells (baculovirus, pFastBacI)
Text: S-adenosylmethionine (SAM), S-adenosylhomocysteine (SAH), bicine, Tween20, dimethylsulfoxide (DMSO), bovine skin gelatin (BSG), and Tris(2-carboxyethyl)phosphine hydrochloride solution (TCEP) were purchased from Sigma-Aldrich at the highest level of purity possible. ^3H-SAM was purchase from American Radiolabeled Chemicals with a specific activity of 80 Ci/mmol. 384-well streptavidin Flashplates were purchased from PerkinElmer.
Peptide representative of human histone H4 residues 36-50 was synthesized with an N-terminal linker-affinity tag motif and a C-terminal amide cap by 21st Century Biochemicals. The peptide was purified by high-performance liquid chromatography (HPLC) to greater than 95% purity and confirmed by liquid chromatography mass spectrometry (LC-MS). The sequence was Biot-Ahx-RLARRGGVKRISGLI-amide (SEQ ID NO.: 1).
Full-length human PRMT1 isoform 1 (NM_001536.5) transcript clone was amplified from an HEK 293 cDNA library, incorporating flanking 5′ sequence encoding a FLAG tag (DYKDDDDK) (SEQ ID NO.:2) fused directly to Met 1 of PRMT1. The amplified gene was subcloned into pFastBacI (Life Technologies) modified to encode an N-terminal GST tag and a TEV cleavage sequence ([…] […] […] […]) (SEQ ID NO.:3) fused to Asp of the Flag tag of PRMT1.
Recombinant baculovirus were generated according to Bac-to-Bac kit instructions (Life Technologies). Protein over-expression was accomplished by infecting exponentially growing High Five insect cell culture at 1.5×10^6 cell/ml with 1:100 ratio of virus. Infections were carried out at 27° C. for 48 hours, harvested by centrifugation, and stored at −80° C. for purification. […]

[1] = system: mono-methyl arginine in RKO cells; assay: RKO methylation assay (In Cell Western for mono-methyl arginine and DNA content); format: cell-based; conditions: 72 hours, percent activation of mono-methyl arginine signal normalised to DNA content
Text: RKO adherent cells were purchased from ATCC (American Type Culture Collection), Manassas, Va., USA. DMEM/Glutamax medium, penicillin-streptomycin, heat inactivated fetal bovine serum, 0.05% trypsin and D-PBS were purchased from Life Technologies, Grand Island, N.Y., USA. Odyssey blocking buffer, 800CW goat anti-rabbit IgG (H+L) antibody, and Licor Odyssey infrared scanner were purchased from Licor Biosciences, Lincoln, Nebr., USA. Mono-methyl arginine antibody was purchased from Cell Signaling Technology, Danvers, Mass., USA.
Methanol was purchased from VWR, Franklin, Mass., USA. 10% Tween 20 was purchased from KPL, Inc., Gaithersburg, Md., USA. DRAQ5 was purchased from Biostatus Limited, Leicestershire, UK. […]
First, the ratio for each well was determined by:
Each plate included fourteen control wells of DMSO only treatment (minimum activation) as well as fourteen control wells for maximum activation treated with 20 μM of a reference compound. The average of the ratio values for each control type was calculated and used to determine the percent activation for each test well in the plate. […] Percent activation was determined and EC30 curves were generated using triplicate wells per concentration of compound.

T1 sequence (Q99873 with tags, fused parts or gaps): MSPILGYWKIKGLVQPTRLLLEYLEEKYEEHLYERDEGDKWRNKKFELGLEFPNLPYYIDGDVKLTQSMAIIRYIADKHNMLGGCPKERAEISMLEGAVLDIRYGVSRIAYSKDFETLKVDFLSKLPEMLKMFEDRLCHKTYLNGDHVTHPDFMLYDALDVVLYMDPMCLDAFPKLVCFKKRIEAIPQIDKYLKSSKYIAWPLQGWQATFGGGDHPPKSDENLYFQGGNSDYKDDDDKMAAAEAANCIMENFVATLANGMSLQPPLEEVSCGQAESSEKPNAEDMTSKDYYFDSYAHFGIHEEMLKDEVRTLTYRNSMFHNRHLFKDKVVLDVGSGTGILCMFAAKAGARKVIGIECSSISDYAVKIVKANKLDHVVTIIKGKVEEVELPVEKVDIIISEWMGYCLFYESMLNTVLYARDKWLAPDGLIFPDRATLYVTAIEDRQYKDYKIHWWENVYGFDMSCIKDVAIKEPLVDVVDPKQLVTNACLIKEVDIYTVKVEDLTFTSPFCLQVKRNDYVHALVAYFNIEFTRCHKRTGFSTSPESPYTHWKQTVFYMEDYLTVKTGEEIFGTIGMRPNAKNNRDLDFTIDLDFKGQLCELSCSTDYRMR

| IC50 (PRMT1) | Compound | In Cell Western EC30 [1] |
| --- | --- | --- |
| < 0.1 µM | C=C(C)C(=O)Nc1ccc(-c2[nH]ncc2CN(C)CCNC)cc1 [Compound 1, N-(4-(4-((methyl(2-(methylamino)ethyl)amino)methyl)-1H-pyrazol-3-yl)phenyl)methacrylamide] | B (“B” indicates an EC30 of 3.01-12.00 μM) |
| 0.101 to 1 µM | C=CC(=O)Nc1ccc(-c2[nH]ncc2CN(C)CCNC)cc1 [Compound 2, N-(4-(4-((methyl(2-(methylamino)ethyl)amino)methyl)-1H-pyrazol-3-yl)phenyl)acrylamide] | C (“C” indicates an EC30 ≧ 12.01 μM) |

| Compound | IC50 (PRMT1) | In Cell Western EC30 [1] |
| --- | --- | --- |
| 3-methyl-N-(3-(4-((methyl (2-(methylamino)ethyl)amino)methyl)-1H-pyrazol-3-yl)phenyl)but-2-enamide [Compound 3] | 0.101 to 1 µM |  |
